Data taken from patent US20160137968A1, “TISSUE CULTURE TESTING SYSTEMS AND METHODS OF USE” (Barry University, priority 2014, published 2016).

Assays:
[1] = system: S. aureus; test: Bioburden reduction in infected full-thickness skin tissue samples in Franz cells (total CFUs); format: cell-based, Staphylococcus aureus; details: 0.1 liters/minute
Source text: (§1) After an infection period is over, tissue samples can be homogenized, and serial dilutions can be grown on LB agar plates in order to facilitate the counting of colony formation units (CFUs), which approximate the level of bacteria present in the sample after infection. Other methods of quantifying infection and the various manifestations of infection are also possible, as would be recognized by one of ordinary skill in the art based on the present disclosure. For example, activation of various cytokines can be measured, as well as gene expression (upregulation and/or down regulation) of various genetic regulators of inflammatory and immune responses taking place in cells and tissues. These experimental procedures allow for the investigation of various experimental factors and perturbations, such as NO pressures, exposure times, and flow rates, in the context of skin infection and how they may influence bioburden reduction and wound healing.
(§2) In FIG. 4, the growth curves of several pathogenic bacteria are shown, including MRSA, Acinetobacter and Pseudomonas. In order to determine whether a given set of experimental factors or perturbations relating to NO exposure reduces bioburden, tissue samples were infected with the same concentration of bacteria under the same experimental conditions. […] In some aspects, 15 μl of a bacterial culture is sufficient to infect a cell or tissue sample.
(§3) Full-thickness skin tissue samples (e.g., EPIDERM tissue model from MatTek Corp., Ashland, Mass. 01721) were exposed to various experimental factors. […] The skin samples used were infected with S. aureus for 24 hours, followed by 90 minutes of pressurized exposure at a flow rate of 0.1 liters/minute.
(§4) The samples used were infected with Staphylococcus, MRSA, Acinetobacter or Pseudomonas.
(§5) Experiments were also conducted as described above in the previous examples to determine the minimum amount of exposure time necessary to obtain maximum reductions in bioburden. In some cases, determining the minimum tissue exposure time to gNO can reduce any potentially detrimental effects on the health of the tissue, while still reducing bioburden. Flow rate was maintained at 0.1 liters/minute, but the exposure time was shortened to 60 minutes at 1 ATM (independent of and in addition to the pressure applied by the external environment).
Experiments were also conducted as described above in the previous examples to determine the minimum amount of gNO pressure necessary to obtain maximum reductions in bioburden. In some cases, determining the minimum amount of gNO pressure can reduce any potentially detrimental effects on the health of the tissue, while still reducing bioburden.

[2] = system: A. baumannii; test: as above; format: cell-based; details: 1 ATM, 0.1 liters/minute
Source text: as §1, §2, §3, §4, §5

[3] = system: MRSA; test: as above; format: cell-based; details: 1 ATM, 0.1 liters/minute
Source text: as §1, §2, §3, §4, §5

[4] = system: P. aeruginosa; test: as above; format: cell-based; details: 1 ATM, 0.1 liters/minute
Source text: as §1, §2, §3, §4, §5

[5] = system: full-thickness skin tissue samples; test: Tissue viability using MTT assays; format: cell-based, human
Procedure: Experiments were also conducted to investigate the effects of various NO pressures, exposure times, and flow rates on tissue viability using MTT assays. An MTT assay is a colorimetric assay for assessing cell viability. NAD(P)H-dependent cellular oxidoreductase enzymes may, under defined conditions, reflect the number of viable cells present. These enzymes are capable of reducing the tetrazolium dye MTT 3-(4,5-dimethylthiazol-2-yl)-2,5-diphenyltetrazolium bromide to its insoluble formazan, which has a purple color. Other closely related tetrazolium dyes including XTT, MTS and the WSTs, can also be used. Tetrazolium-based dye assays can also be used to measure cytotoxicity (loss of viable cells) or cytostatic activity (shift from proliferation to quiescence) of potential medicinal agents and toxic materials.

`[N]=O` [gNO, Nitric Oxide] was tested, and the bioburden reduction ([1]; NO at 0.25 ATM, 90 minutes, infected 24 hours) was “sufficient to reduce bioburden”, the bioburden reduction ([1]; NO at 0.3 ATM, 90 minutes, infected 24 hours) was “sufficient to reduce bioburden” and the “log reduction in bioburden” value ([1]; S. aureus (biofilm-forming), 1% NO, 90 min, 1 ATM, infected 24 hours) was ~3 log. The “reduction of bioburden compared to controls” value (from here on “reduction of bioburden”) ([1]; S. aureus, 60 minutes, 1 ATM) was “did not show significant reduction of bioburden”, the “bacterial bioburden (CFUs)” value ([1]; Staphylococcus, 1% NO, 1 ATM, 120 minutes, 24 hours of infection) was “completely eliminated” and the “bioburden (total CFUs)” value ([1]; pressurized gNO at 1 ATM compared to 0 ATM, 90 minutes, infected 24 hours) was “did significantly reduce bioburden”. The “log reduction in bioburden” value ([2]; A. baumannii, 1% NO, 90 min, infected 24 hours) was 5-6 log, the “reduction of bioburden” value ([2]; A. baumannii, 60 minutes) was “effective” and the “bacterial bioburden (CFUs)” value ([2]; Acinetobacter, 1% NO, 120 minutes, 24 hours of infection) was “completely eliminated”. For the same compound, the “bacterial bioburden (CFUs)” value ([3]; 1% NO, 120 minutes, 24 hours of infection) was “completely eliminated”, the “log reduction in bioburden” value ([3]; 1% NO, 90 min, infected 24 hours) was 5-6 log and the “reduction of bioburden” value ([3]; 60 minutes) was “did not show significant reduction of bioburden”. The “log reduction in bioburden” value ([4]; P. aeruginosa, 1% NO, 90 min, infected 24 hours) was 5-6 log, the “reduction of bioburden” value ([4]; P. aeruginosa, 60 minutes) was “effective” and the “bacterial bioburden (CFUs)” value ([4]; Pseudomonas, 1% NO, 120 minutes, 24 hours of infection) was “completely eliminated”. The “tissue viability (MTT)” value ([5]; 1% NO with or without pressure, as exposure time decreased) was “viability increased” and the “tissue viability (MTT)” value ([5]; combination of pressurized gNO and increasing concentrations of NO) was “caused a decrease in viability”.
